Biological target: T1, aryl hydrocarbon receptor (AhR) (Mus musculus, UniProt P30561)
T1 construct: purified mouse AhR:ARNT complex; with ARNT
Test: fluorescence quenching assay (intrinsic ligand fluorescence) with purified AhR:ARNT
Assay type: binding

T1 sequence (P30561 10-848): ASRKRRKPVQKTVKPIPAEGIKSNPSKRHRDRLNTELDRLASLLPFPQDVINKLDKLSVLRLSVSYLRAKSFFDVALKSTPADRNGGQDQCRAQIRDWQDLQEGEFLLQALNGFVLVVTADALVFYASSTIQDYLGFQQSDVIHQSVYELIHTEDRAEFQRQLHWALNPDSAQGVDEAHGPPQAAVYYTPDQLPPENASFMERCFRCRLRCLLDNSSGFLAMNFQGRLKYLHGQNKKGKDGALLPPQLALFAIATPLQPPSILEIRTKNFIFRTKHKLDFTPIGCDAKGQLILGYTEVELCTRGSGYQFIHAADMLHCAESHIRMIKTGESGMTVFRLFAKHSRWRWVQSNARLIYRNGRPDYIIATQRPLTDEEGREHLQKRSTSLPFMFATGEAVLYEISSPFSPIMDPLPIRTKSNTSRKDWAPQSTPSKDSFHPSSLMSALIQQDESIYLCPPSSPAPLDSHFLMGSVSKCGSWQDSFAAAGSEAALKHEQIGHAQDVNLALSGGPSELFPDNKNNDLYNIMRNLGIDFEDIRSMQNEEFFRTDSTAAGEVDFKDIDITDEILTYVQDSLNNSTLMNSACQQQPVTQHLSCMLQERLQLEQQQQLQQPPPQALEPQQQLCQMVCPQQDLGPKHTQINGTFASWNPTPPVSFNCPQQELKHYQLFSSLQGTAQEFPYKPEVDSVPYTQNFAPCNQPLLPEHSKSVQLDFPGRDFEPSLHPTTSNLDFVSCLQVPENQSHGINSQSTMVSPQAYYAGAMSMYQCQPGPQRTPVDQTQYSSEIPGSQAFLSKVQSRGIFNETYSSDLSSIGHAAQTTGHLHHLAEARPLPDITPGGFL
T1 sequence (P53762 2-791 partner): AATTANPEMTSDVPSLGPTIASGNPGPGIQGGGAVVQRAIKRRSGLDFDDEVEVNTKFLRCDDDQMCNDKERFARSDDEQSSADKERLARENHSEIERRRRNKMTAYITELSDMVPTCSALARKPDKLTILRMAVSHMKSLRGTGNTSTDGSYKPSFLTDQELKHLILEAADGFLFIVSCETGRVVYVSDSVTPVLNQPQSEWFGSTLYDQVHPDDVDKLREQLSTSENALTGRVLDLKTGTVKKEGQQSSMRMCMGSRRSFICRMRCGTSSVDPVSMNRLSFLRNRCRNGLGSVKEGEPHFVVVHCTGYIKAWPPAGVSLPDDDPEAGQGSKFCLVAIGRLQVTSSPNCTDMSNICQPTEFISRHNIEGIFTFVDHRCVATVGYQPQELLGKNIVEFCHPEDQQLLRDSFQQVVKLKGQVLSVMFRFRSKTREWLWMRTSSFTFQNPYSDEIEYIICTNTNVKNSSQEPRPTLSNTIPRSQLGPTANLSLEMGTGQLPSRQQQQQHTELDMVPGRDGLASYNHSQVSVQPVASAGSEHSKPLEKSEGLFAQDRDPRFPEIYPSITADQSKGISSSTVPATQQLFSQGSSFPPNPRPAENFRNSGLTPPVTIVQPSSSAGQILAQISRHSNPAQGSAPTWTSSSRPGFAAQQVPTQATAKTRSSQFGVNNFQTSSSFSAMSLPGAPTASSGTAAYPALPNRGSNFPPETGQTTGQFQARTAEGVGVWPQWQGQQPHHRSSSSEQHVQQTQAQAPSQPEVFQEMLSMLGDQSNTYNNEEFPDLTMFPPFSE

Work on `CCS(=O)(=O)c1ccc2oc(-c3ccc4ccccc4c3)nc2c1` [compound 1, ezutromid] yielded a Kd of 50.1 ± 22.1 nM.
